# Values of other authors as cited in US8815898B2, “6,7-disubstituted-sioquinoline derivatives and their use” (Montisera Ltd, priority 2010, dated 2014).
smiles,measurement,setting,value
c1ccc2c(c1)CCNC2 [TIQ],hydroxylated (C4 of the isoquinoline backbone) derivative in the urine,"most abundant metabolite in urine, 4-hydroxy derivative of the parent",2.7%
same,excreted in urine unchanged,share excreted in urine unchanged,76%
same,exit the brain unchanged,share of compound leaving the brain unchanged,90.4%
